pIC50: −log10 of the molar value.
Tested on: 266295-075-R-J1-PDC spheroid viability
Test: Anticancer human tumor 266295-075-R-J1-PDC patient-derived head and neck squamous carcinoma cell line growth inhibition [POLQ]
Conditions: spheroids with HUVEC and MSC; for pIC50: curve of first compound; for viability, T/C: stronger effect = lower value
Summary of the method: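 PDC + HUVEC + MSC complex spheroids; POLQ inhibitors ± partner drugs; top conc. at/near clinical Cmax, else 10 microM (SN-38 1 microM), half-log dilutions; 37 degrees C, 5% CO2.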

[1] = second compound 0.0316 µM, first compound 0.0316 µM
[2] = second compound 0.0316 µM, first compound 0.1 µM
[3] = second compound 0.0316 µM, first compound 0.316 µM
[4] = second compound 0.0316 µM, first compound 1 µM
[5] = second compound 0.0316 µM, first compound 3.16 µM
[6] = second compound 0.0316 µM, first compound 10 µM
[7] = second compound 0.1 µM, first compound 0.0316 µM
[8] = second compound 0.1 µM, first compound 0.1 µM
[9] = second compound 0.1 µM, first compound 0.316 µM
[10] = second compound 0.1 µM, first compound 1 µM
[11] = second compound 0.1 µM, first compound 3.16 µM
[12] = second compound 0.1 µM, first compound 10 µM
[13] = second compound 0.316 µM, first compound 0.0316 µM
[14] = second compound 0.316 µM, first compound 0.1 µM
[15] = second compound 0.316 µM, first compound 0.316 µM
[16] = second compound 0.316 µM, first compound 1 µM
[17] = second compound 0.316 µM, first compound 3.16 µM
[18] = second compound 0.316 µM, first compound 10 µM
[19] = second compound 1 µM, first compound 0.0316 µM
[20] = second compound 1 µM, first compound 0.1 µM
[21] = second compound 1 µM, first compound 0.316 µM
[22] = second compound 1 µM, first compound 1 µM
[23] = second compound 1 µM, first compound 3.16 µM
[24] = second compound 1 µM, first compound 10 µM
[25] = second compound 3.16 µM, first compound 0.0316 µM
[26] = second compound 3.16 µM, first compound 0.1 µM
[27] = second compound 3.16 µM, first compound 0.316 µM
[28] = second compound 3.16 µM, first compound 1 µM
[29] = second compound 3.16 µM, first compound 3.16 µM
[30] = second compound 3.16 µM, first compound 10 µM
[31] = second compound 10 µM, first compound 0.0316 µM
[32] = second compound 10 µM, first compound 0.1 µM
[33] = second compound 10 µM, first compound 0.316 µM
[34] = second compound 10 µM, first compound 1 µM
[35] = second compound 10 µM, first compound 3.16 µM
[36] = second compound 10 µM, first compound 10 µM
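Note: spheroids exposed to compounds for seven days before readout.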

`C=CC(=O)N1CCN(c2nc(=O)n(-c3c(C)ccnc3C(C)C)c3nc(-c4c(O)cccc4F)c(F)cc23)C(C)C1` (stereo not drawn) + COC1C(OC(N)=O)C(O)C(Oc2ccc3c(O)c(NC(=O)c4ccc(O)c(CC=C(C)C)c4)c(=O)oc3c2C)OC1(C)C was tested, and the pIC50 (second compound 0.0316 µM) was under 5.00, the pIC50 (second compound 0.1 µM) was under 5.00 and the pIC50 (second compound 0.316 µM) was under 5.00. The pIC50 (second compound 1 µM) was under 5.00, the pIC50 (second compound 3.16 µM) was under 5.00 and the pIC50 (second compound 10 µM) was under 5.00. The viability, T/C [1] was 88.8%, the viability, T/C [2] was 94.7% and the viability, T/C [3] was 133%. For the same compound, the viability, T/C [4] was 118%, the viability, T/C [5] was 112% and the viability, T/C [6] was 112%. It also gave a viability, T/C [7] of 98.7%, a viability, T/C [8] of 90.6% and a viability, T/C [9] of 94%. The viability, T/C [10] was 104%, the viability, T/C [11] was 96% and the viability, T/C [12] was 129%. For the same compound, the viability, T/C [13] was 96.9%, the viability, T/C [14] was 103% and the viability, T/C [15] was 104%. The viability, T/C [16] was 106%, the viability, T/C [17] was 125% and the viability, T/C [18] was 105%. For the same compound, the viability, T/C [19] was 85.9%, the viability, T/C [20] was 114% and the viability, T/C [21] was 93.4%. For the same compound, the viability, T/C [22] was 106%, the viability, T/C [23] was 139% and the viability, T/C [24] was 124%. It also gave a viability, T/C [25] of 92.2%, a viability, T/C [26] of 98.4% and a viability, T/C [27] of 108%. The viability, T/C [28] was 112%, the viability, T/C [29] was 116% and the viability, T/C [30] was 117%. For the same compound, the viability, T/C [31] was 97%, the viability, T/C [32] was 79.3% and the viability, T/C [33] was 92.5%. The viability, T/C [34] was 122%, the viability, T/C [35] was 109% and the viability, T/C [36] was 114%.
Work on `CCc1cc2c(N3CCc4c(cc(Cn5ccnc5)cc4-c4cn(C)nc4C(F)(F)F)C3=O)cc(C)nc2c(OC)n1` + COC1C(OC(N)=O)C(O)C(Oc2ccc3c(O)c(NC(=O)c4ccc(O)c(CC=C(C)C)c4)c(=O)oc3c2C)OC1(C)C yielded a pIC50 (second compound 0.0316 µM) of under 5.00, a pIC50 (second compound 0.1 µM) of under 5.00 and a pIC50 (second compound 0.316 µM) of under 5.00. For the same compound, the pIC50 (second compound 1 µM) was under 5.00, the pIC50 (second compound 3.16 µM) was under 5.00 and the pIC50 (second compound 10 µM) was under 5.00. For the same compound, the viability, T/C [1] was 112%, the viability, T/C [2] was 101% and the viability, T/C [3] was 114%. It also gave a viability, T/C [4] of 108%, a viability, T/C [5] of 134% and a viability, T/C [6] of 148%. For the same compound, the viability, T/C [7] was 105%, the viability, T/C [8] was 102% and the viability, T/C [9] was 93.8%. The viability, T/C [10] was 121%, the viability, T/C [11] was 134% and the viability, T/C [12] was 157%. For the same compound, the viability, T/C [13] was 85.9%, the viability, T/C [14] was 94.2% and the viability, T/C [15] was 118%. For the same compound, the viability, T/C [16] was 107%, the viability, T/C [17] was 125% and the viability, T/C [18] was 163%. For the same compound, the viability, T/C [19] was 75.3%, the viability, T/C [20] was 92.8% and the viability, T/C [21] was 102%. It also gave a viability, T/C [22] of 115%, a viability, T/C [23] of 145% and a viability, T/C [24] of 128%. The viability, T/C [25] was 106%, the viability, T/C [26] was 95.7% and the viability, T/C [27] was 108%. The viability, T/C [28] was 113%, the viability, T/C [29] was 126% and the viability, T/C [30] was 147%. The viability, T/C [31] was 98.6%, the viability, T/C [32] was 83.8% and the viability, T/C [33] was 82.7%. The viability, T/C [34] was 120%, the viability, T/C [35] was 119% and the viability, T/C [36] was 154%.
`CCc1cc2c(N3CCc4c(cc(Cn5ccnc5)cc4-c4cn(C)nc4C(F)(F)F)C3=O)ccnc2c(OC)n1` + COC1C(OC(N)=O)C(O)C(Oc2ccc3c(O)c(NC(=O)c4ccc(O)c(CC=C(C)C)c4)c(=O)oc3c2C)OC1(C)C showed a pIC50 (second compound 0.0316 µM) of under 5.00, a pIC50 (second compound 0.1 µM) of under 5.00 and a pIC50 (second compound 0.316 µM) of under 5.00. The pIC50 (second compound 1 µM) was under 5.00, the pIC50 (second compound 3.16 µM) was under 5.00 and the pIC50 (second compound 10 µM) was under 5.00. It also gave a viability, T/C [1] of 88.9%, a viability, T/C [2] of 93% and a viability, T/C [3] of 119%. It also gave a viability, T/C [4] of 104%, a viability, T/C [5] of 144% and a viability, T/C [6] of 132%. For the same compound, the viability, T/C [7] was 117%, the viability, T/C [8] was 96.8% and the viability, T/C [9] was 127%. The viability, T/C [10] was 107%, the viability, T/C [11] was 114% and the viability, T/C [12] was 132%. For the same compound, the viability, T/C [13] was 94.8%, the viability, T/C [14] was 96.7% and the viability, T/C [15] was 95%. For the same compound, the viability, T/C [16] was 129%, the viability, T/C [17] was 120% and the viability, T/C [18] was 115%. The viability, T/C [19] was 95.3%, the viability, T/C [20] was 80.9% and the viability, T/C [21] was 94%. The viability, T/C [22] was 102%, the viability, T/C [23] was 129% and the viability, T/C [24] was 127%. For the same compound, the viability, T/C [25] was 100%, the viability, T/C [26] was 101% and the viability, T/C [27] was 104%. It also gave a viability, T/C [28] of 117%, a viability, T/C [29] of 159% and a viability, T/C [30] of 146%. It also gave a viability, T/C [31] of 90.2%, a viability, T/C [32] of 87.7% and a viability, T/C [33] of 111%. For the same compound, the viability, T/C [34] was 117%, the viability, T/C [35] was 145% and the viability, T/C [36] was 135%.
In the case of `COc1cc2cc(C(=O)CCC(=O)O)sc2cc1OC` + COC1C(OC(N)=O)C(O)C(Oc2ccc3c(O)c(NC(=O)c4ccc(O)c(CC=C(C)C)c4)c(=O)oc3c2C)OC1(C)C, the pIC50 (second compound 0.0316 µM) was under 5.00, the pIC50 (second compound 0.1 µM) was under 5.00 and the pIC50 (second compound 0.316 µM) was under 5.00. For the same compound, the pIC50 (second compound 1 µM) was under 5.00, the pIC50 (second compound 3.16 µM) was under 5.00 and the pIC50 (second compound 10 µM) was under 5.00. The viability, T/C [1] was 99.4%, the viability, T/C [2] was 95.9% and the viability, T/C [3] was 114%. The viability, T/C [4] was 101%, the viability, T/C [5] was 95.4% and the viability, T/C [6] was 82.4%. For the same compound, the viability, T/C [7] was 69.1%, the viability, T/C [8] was 90.1% and the viability, T/C [9] was 96.8%. It also gave a viability, T/C [10] of 120%, a viability, T/C [11] of 93.8% and a viability, T/C [12] of 93.3%. The viability, T/C [13] was 97.7%, the viability, T/C [14] was 91.6% and the viability, T/C [15] was 92.4%. For the same compound, the viability, T/C [16] was 99.2%, the viability, T/C [17] was 91.5% and the viability, T/C [18] was 87.6%. For the same compound, the viability, T/C [19] was 100%, the viability, T/C [20] was 96.4% and the viability, T/C [21] was 97.8%. It also gave a viability, T/C [22] of 111%, a viability, T/C [23] of 93.2% and a viability, T/C [24] of 93.4%. For the same compound, the viability, T/C [25] was 99.5%, the viability, T/C [26] was 90.2% and the viability, T/C [27] was 95.6%. For the same compound, the viability, T/C [28] was 112%, the viability, T/C [29] was 90.7% and the viability, T/C [30] was 90.1%. The viability, T/C [31] was 114%, the viability, T/C [32] was 90.6% and the viability, T/C [33] was 96.5%. It also gave a viability, T/C [34] of 98.5%, a viability, T/C [35] of 120% and a viability, T/C [36] of 90.2%.

From PubChem BioAssay AID1963853 (Molecular Pharmacology Branch, DTP, NCI, 2024)
